Data from ChEMBL document CHEMBL1135004, “Natural and synthetic geiparvarins are strong and selective MAO-B inhibitors. Synthesis and SAR studies” (Bioorg Med Chem Lett, 2002).

The molecules below were run against T1, Amine oxidase [flavin-containing] B (Homo sapiens, UniProt P27338) (assay: Inhibitory potency against Monoamine oxidase B).
T1 sequence (P27338 whole entry): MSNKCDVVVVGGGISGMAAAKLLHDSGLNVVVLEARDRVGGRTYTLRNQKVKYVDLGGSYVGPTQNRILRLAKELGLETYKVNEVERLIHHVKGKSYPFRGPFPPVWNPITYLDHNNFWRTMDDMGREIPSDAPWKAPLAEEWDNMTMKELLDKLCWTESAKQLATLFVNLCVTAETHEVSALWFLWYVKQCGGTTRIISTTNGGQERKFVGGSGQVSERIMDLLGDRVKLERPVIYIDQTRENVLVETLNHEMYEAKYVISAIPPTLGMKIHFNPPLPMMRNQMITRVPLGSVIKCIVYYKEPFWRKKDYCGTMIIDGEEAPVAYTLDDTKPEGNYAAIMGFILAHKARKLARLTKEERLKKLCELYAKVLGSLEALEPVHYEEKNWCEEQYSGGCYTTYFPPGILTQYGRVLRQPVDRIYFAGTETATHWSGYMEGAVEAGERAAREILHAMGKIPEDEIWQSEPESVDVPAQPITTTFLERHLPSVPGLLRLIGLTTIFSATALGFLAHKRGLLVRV

| Structure (SMILES) | IC50 [µM] |
| --- | --- |
| CC(=O)/C=C/C=C/COc1ccc2ccc(=O)oc2c1 | 1.7 |
| CC1(C)OC(/C=C/COc2ccc3ccc(=O)oc3c2)=CC1=O | 0.0282 |
| Cc1cc(=O)oc2cc(OC/C=C/C3=CC(=O)C(C)(C)O3)ccc12 | 0.17 |
| Cc1c(C)c2ccc(OC/C=C/C3=CC(=O)C(C)(C)O3)cc2oc1=O | 0.631 |
| C/C(=C\COc1ccc2c(C)c(C)c(=O)oc2c1)C1=CC(=O)C(C)(C)O1 | 0.129 |
| Cc1cc2ccc(OC/C=C/C3=CC(=O)C(C)(C)O3)cc2oc1=O | 0.589 |
| CC1(c2ccccc2)OC(/C=C/COc2ccc3ccc(=O)oc3c2)=CC1=O (stereo unspecified) | 1.51 |
| C/C(=C\COc1ccc2ccc(=O)oc2c1)C1=CC(=O)C(C)(C)O1 [GEIPARVARIN] | 0.145 |

Each molecule was assayed against T2, Monoamine oxidase A (Homo sapiens, UniProt P21397) (assay: Inhibitory potency against Monoamine oxidase A at 10 uM).
T2 sequence (P21397 whole entry): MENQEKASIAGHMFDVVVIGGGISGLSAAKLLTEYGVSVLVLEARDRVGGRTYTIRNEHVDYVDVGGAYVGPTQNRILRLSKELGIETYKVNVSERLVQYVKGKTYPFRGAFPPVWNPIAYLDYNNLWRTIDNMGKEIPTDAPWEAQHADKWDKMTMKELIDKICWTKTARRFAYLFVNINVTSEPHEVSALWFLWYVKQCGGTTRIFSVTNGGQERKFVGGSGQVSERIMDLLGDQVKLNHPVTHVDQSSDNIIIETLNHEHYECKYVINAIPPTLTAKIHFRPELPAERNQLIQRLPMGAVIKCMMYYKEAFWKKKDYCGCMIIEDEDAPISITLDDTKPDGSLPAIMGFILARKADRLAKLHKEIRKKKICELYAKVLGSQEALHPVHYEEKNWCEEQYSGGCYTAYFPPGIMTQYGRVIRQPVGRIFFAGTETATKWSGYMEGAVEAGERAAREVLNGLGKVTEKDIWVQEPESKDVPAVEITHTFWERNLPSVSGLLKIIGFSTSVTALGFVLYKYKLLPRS

| Structure (SMILES) | inhibition at 10 µM [%] |
| --- | --- |
| CC(=O)/C=C/C=C/COc1ccc2ccc(=O)oc2c1 | 26 |
| Cc1cc(=O)oc2cc(OC/C=C/C3=CC(=O)C(C)(C)O3)ccc12 | 27 |
| C/C(=C\COc1ccc2c(C)c(C)c(=O)oc2c1)C1=CC(=O)C(C)(C)O1 | 37 |

These molecules were tested against T3, Amine oxidase [flavin-containing] A (Homo sapiens, UniProt P21397) (assay: Inhibitory potency against Monoamine oxidase A).
T3 sequence (P21397 whole entry): T2 sequence (P21397 whole entry)

| Structure (SMILES) | IC50 [µM] |
| --- | --- |
| CC1(C)OC(/C=C/COc2ccc3ccc(=O)oc3c2)=CC1=O | 24 |
| Cc1c(C)c2ccc(OC/C=C/C3=CC(=O)C(C)(C)O3)cc2oc1=O | 11.2 |
| Cc1cc2ccc(OC/C=C/C3=CC(=O)C(C)(C)O3)cc2oc1=O | 15.1 |
| C/C(=C\COc1ccc2ccc(=O)oc2c1)C1=CC(=O)C(C)(C)O1 [GEIPARVARIN] | 26.9 |

Each molecule was assayed against T2, Monoamine oxidase A (assay: Inhibitory potency against Monoamine oxidase A at 3 uM).

| Structure (SMILES) | inhibition at 3 µM [%] |
| --- | --- |
| CC1(c2ccccc2)OC(/C=C/COc2ccc3ccc(=O)oc3c2)=CC1=O (stereo unspecified) | 0 |
